Laboratory results from patent US10793563B2, “GCN2 inhibitors and uses thereof” (Merck Patent GmbH, priority 2018, dated 2020).

Each compound was assayed against GCN2 kinase (Homo sapiens (Human), UniProt Q9P2K8) (assay: GCN2 Enzyme Inhibition Assay (Transcreener ADP2 fluorescence polarization)). Conditions: 280 μM ATP, 200 μM (RS)7 peptide, 4 nM GCN2, 25° C.
Sequence of GCN2 kinase (Q9P2K8 whole entry): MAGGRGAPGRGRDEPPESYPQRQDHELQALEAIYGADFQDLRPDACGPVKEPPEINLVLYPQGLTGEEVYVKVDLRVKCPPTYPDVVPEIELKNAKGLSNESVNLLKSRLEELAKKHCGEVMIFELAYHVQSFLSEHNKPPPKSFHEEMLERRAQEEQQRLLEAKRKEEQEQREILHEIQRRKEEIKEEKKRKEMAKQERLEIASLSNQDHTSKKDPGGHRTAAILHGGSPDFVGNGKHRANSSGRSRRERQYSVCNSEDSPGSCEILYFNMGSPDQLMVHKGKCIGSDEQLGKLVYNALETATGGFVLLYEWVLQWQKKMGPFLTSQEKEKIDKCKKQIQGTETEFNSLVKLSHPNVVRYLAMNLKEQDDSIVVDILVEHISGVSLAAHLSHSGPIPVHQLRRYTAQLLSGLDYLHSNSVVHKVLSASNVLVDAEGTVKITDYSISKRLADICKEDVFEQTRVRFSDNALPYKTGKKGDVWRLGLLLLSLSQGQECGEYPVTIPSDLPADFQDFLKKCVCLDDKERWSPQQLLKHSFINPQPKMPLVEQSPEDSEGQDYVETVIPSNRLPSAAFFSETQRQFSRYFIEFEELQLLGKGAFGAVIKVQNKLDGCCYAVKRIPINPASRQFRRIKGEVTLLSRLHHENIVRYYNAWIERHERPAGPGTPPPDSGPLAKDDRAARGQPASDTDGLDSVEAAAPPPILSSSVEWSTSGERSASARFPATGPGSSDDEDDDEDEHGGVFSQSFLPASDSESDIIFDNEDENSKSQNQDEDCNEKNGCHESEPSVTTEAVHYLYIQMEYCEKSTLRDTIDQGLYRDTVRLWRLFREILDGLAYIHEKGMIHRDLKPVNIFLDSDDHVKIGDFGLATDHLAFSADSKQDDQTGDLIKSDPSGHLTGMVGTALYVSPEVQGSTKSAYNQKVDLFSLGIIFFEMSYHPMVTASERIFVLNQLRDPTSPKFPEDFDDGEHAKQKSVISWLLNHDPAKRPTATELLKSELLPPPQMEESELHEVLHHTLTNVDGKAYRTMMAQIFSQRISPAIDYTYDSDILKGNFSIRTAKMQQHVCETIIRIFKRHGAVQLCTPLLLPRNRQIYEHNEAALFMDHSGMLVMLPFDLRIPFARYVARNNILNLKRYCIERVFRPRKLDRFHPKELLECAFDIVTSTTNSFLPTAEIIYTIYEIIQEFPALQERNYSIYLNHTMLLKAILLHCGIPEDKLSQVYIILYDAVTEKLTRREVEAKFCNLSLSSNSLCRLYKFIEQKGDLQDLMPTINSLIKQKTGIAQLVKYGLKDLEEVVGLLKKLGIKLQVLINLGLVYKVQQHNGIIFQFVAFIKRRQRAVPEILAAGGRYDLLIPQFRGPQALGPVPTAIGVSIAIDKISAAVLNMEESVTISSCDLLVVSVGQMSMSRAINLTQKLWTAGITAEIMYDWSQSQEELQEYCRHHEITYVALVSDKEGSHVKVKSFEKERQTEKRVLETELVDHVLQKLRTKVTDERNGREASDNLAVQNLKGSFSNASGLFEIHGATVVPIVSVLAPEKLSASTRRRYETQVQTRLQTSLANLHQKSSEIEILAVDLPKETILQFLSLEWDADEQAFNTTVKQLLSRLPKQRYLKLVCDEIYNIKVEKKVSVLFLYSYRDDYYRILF
Assay type: biochemical
Protocol: Compounds were screened for their ability to inhibit GCN2 kinase activity using a Transcreener® ADP^2 fluorescence polarization assay that detects ADP levels (BellBrook Labs, WI). Assays were carried out in a buffer consisting of 25 mM Tris-HCl (pH 7.5), 50 mM NaCl, 10 mM MgCl2 and 1 mM DTT. […] Assays were carried out at 25° C. in the presence of a (typical) final concentration of 4 nM GCN2 kinase. An assay buffer containing GCN2 kinase and (RS)7 was prepared. […] The plate was incubated for 10 minutes at 25° C. prior to the addition of 4.7 μL of ATP stock buffer to initiate the enzyme reaction. The reaction was allowed to proceed for 1 hour at 25° C., prior to the addition of 10 μL detection buffer (consisting of appropriate concentrations of ADP^2 antibody and ADP Alexa633 tracer in 1× stop and detect buffer as supplied by BellBrook Labs). […] Percentage inhibition of enzyme activity was then calculated at each compound dose. IC50 and Ki(app) (using known assay and kinetic parameters) values were calculated from percentage inhibition data using a non-linear, tight-binding algorithm. All data analysis was undertaken using the Screener® software package (Genedata, Switzerland).
Work on `CC(O)C(=O)N[C@H]1C[C@H](O)CN(c2ccnc(-c3cnc4ccc(C(F)(F)F)cn34)n2)C1` (stereo partly drawn) [I-254, 2-hydroxy-N-((3S,5S)-5-hydroxy-1-(2-(6-(trifluoromethyl)imidazo[1,2-a]pyridin-3-yl)pyrimidin-4-yl)piperidin-3-yl)propanamide] yielded an IC50 of 100 to 1000 nM.
For `O=C(O)C1CC(F)CN(c2ccnc(-c3cnc4ccc(C(F)(F)F)cn34)n2)C1` (stereo not shown) [I-206, 5-fluoro-1-[2-(6-trifluoromethyl-imidazo[1,2-a]pyridin-3-yl)-pyrimidin-4-yl]-piperidine-3-carboxylic acid], the IC50 was 10 to 100 nM.
Compound `CC1C(C(N)=O)NCCN1c1ccnc(-c2cnc3cc(F)c(C4CC4)cn23)n1` (stereo not shown) [I-455, 4-(2-(6-cyclopropyl-7-fluoroimidazo[1,2-a]pyridin-3-yl)pyrimidin-4-yl)-3-methylpiperazine-2-carboxamide] has an IC50 of 10 to 100 nM.
`C[C@@H]1CN(c2ccnc(-c3cnc4ccc(C(F)(F)F)cn34)n2)C[C@H](C)N1C(=O)c1ccncc1` [I-483, (cis-2,6-dimethyl-4-(2-(6-(trifluoromethyl)imidazo[1,2-a]pyridin-3-yl)pyrimidin-4-yl)piperazin-1-yl)(pyridin-4-yl)methanone] showed an IC50 of 100 to 1000 nM.
With `Cc1nn(C)cc1C(=O)N1CCN(c2ccnc(-c3cnc4ccc(C(F)(F)F)cn34)n2)C[C@@H]1C` [I-480, (S)-(1,3-dimethyl-1H-pyrazol-4-yl)(2-methyl-4-(2-(6-(trifluoromethyl)imidazo[1,2-a]pyridin-3-yl)pyrimidin-4-yl)piperazin-1-yl)methanone] the IC50 was 100 to 1000 nM.
`C[C@@H]1CN(c2ccnc(-c3cnc4ccc(C(F)(F)F)cn34)n2)C[C@H](C)N1C(=O)C1(C)CC1` [I-486, (cis-2,6-dimethyl-4-(2-(6-(trifluoromethyl)imidazo[1,2-a]pyridin-3-yl)pyrimidin-4-yl)piperazin-1-yl)(1-methylcyclopropyl)methanone] gave an IC50 of 100 to 1000 nM.
In the case of `CC(C)(C(N)=O)C1CCCN(c2ccnc(-c3cnc4ccc(Cl)cn34)n2)C1` (stereo not shown) [I-309, 2-(1-(2-(6-chloroimidazo[1,2-a]pyridin-3-yl)pyrimidin-4-yl)piperidin-3-yl)-2-methylpropanamide], the IC50 is reported as 100 to 1000 nM.
Compound `CS(=O)(=O)NCC1NCCN(c2ccnc(-c3cnc4ccc(C(F)F)cn34)n2)C1C(F)(F)F` (stereo not shown) [I-496, N-((4-(2-(6-(difluoromethyl)imidazo[1,2-a]pyridin-3-yl)pyrimidin-4-yl)-3-(trifluoromethyl)piperazin-2-yl)methyl)methanesulfonamide] has an IC50 of 100 to 1000 nM.
In the case of `Cc1nn(C)cc1[C@H]1CN(c2nccc(-c3cnc4ccc(C(F)(F)F)cn34)n2)C[C@H](C)O1` [I-156, (2S,6S)-2-(1,3-dimethyl-1H-pyrazol-4-yl)-6-methyl-4-(4-(6-(trifluoromethyl)imidazo[1,2-a]pyridin-3-yl)pyrimidin-2-yl)morpholine], the IC50 is reported as 100 to 1000 nM.
In the case of `COC(=O)C1CC12CCCN(c1ccnc(-c3cnc4ccc(Cl)cn34)n1)C2` (stereo not shown) [I-133, methyl 5-(2-(6-chloroimidazo[1,2-a]pyridin-3-yl)pyrimidin-4-yl)-5-azaspiro[2.5]octane-1-carboxylate], the IC50 is reported as 100 to 1000 nM.
Compound `CC1CN(c2ccnc(-c3cnc4ccc(C(F)(F)F)cn34)n2)CCC1n1cccn1` (stereo not shown) [I-379, 3-(4-(3-methyl-4-(1H-pyrazol-1-yl)piperidin-1-yl)pyrimidin-2-yl)-6-(trifluoromethyl)imidazo[1,2-a]pyridine] has an IC50 of 10 to 100 nM.
Work on `Cc1[nH]ncc1[C@@H]1CN(c2ccnc(-c3cnc4cc(F)c(C5CC5)cn34)n2)C[C@H](C)O1` [I-429, (2S,6R)-4-(2-(6-cyclopropyl-7-fluoroimidazo[1,2-a]pyridin-3-yl)pyrimidin-4-yl)-2-methyl-6-(5-methyl-1H-pyrazol-4-yl)morpholine] yielded an IC50 of less than 10 nM.

Same assay, conditions: Ki(app); 280 μM ATP, 200 μM (RS)7 peptide, 4 nM GCN2, 25° C.
With `Cc1noc([C@@H]2CN(c3ccnc(-c4cnc5ccc(C(F)(F)F)cn45)n3)C[C@H](C)O2)n1` (stereo in doubt) [I-89, 2-methyl-6-(3-methyl-1,2,4-oxadiazol-5-yl)-4-{2-[6-(trifluoromethyl)imidazo[1,2-a]pyridin-3-yl]pyrimidin-4-yl}morpholine] the Ki was 10 to 100 nM.
